# Data reported in the supplement of paper PMC11061612.
# Legend:
# Test in all cases: Bliss excess, mean over the matrix (fraction); higher = more synergy
# [1] = tested on: NCI-H2009 (Lung Adenocarcinoma)
# How it was run: (§1)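 Bliss excess equals the observed combination effect minus the expected value EA + EB − EA·EB, where EA and EB are the effects of each agent alone. Combination Emax is the second-highest inhibition within the matrix. Inhibition was scaled from CellTiter-Glo 2.0 luminescence, with 0 set by vehicle wells and 1 by blank wells, after 72 hours of two-drug dosing of cells plated in 1536-well plates.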
# [2] = tested on: SNU-1 (Gastric Carcinoma)
# How it was run: as §1
# HT-144 (Melanoma) = tested on: HT-144 (Melanoma)
# How it was run: as §1
# [3] = tested on: GRANTA-519 (B-Cell Non-Hodgkin's Lymphoma)
# How it was run: as §1
# [4] = tested on: MDA-MB-175-VII (Breast Carcinoma)
# How it was run: as §1
# [5] = tested on: NCI-H1648 (Lung Adenocarcinoma)
# How it was run: as §1
# [6] = tested on: JJN-3 (Plasma Cell Myeloma)
# How it was run: as §1
# [7] = tested on: Daudi (Burkitt's Lymphoma)
# How it was run: as §1
# NCI-H2452 (Mesothelioma) = tested on: NCI-H2452 (Mesothelioma)
# How it was run: as §1
# DK-MG (Glioblastoma) = tested on: DK-MG (Glioblastoma)
# How it was run: as §1
# [8] = tested on: SBC-3 (Small Cell Lung Carcinoma)
# How it was run: as §1
# [9] = tested on: CAL-85-1 (Breast Carcinoma)
# How it was run: as §1
# [10] = tested on: NCI-H2170 (Squamous Cell Lung Carcinoma)
# How it was run: as §1
# [11] = tested on: SUP-HD1 (Hodgkin's Lymphoma)
# How it was run: as §1
# [12] = tested on: TOV-21G (Ovarian Carcinoma)
# How it was run: as §1
# [13] = tested on: RPMI-8402 (T-Lymphoblastic Leukemia)
# How it was run: as §1
# [14] = tested on: OVKATE (Ovarian Carcinoma)
# How it was run: as §1
# [15] = tested on: NCI-H1944 (Lung Adenocarcinoma)
# How it was run: as §1
# [16] = tested on: BT-474 (Breast Carcinoma)
# How it was run: as §1
# SK-MEL-24 (Melanoma) = tested on: SK-MEL-24 (Melanoma)
# How it was run: as §1
SMILES,Bliss excess [1],Bliss excess [2],Bliss excess (HT-144 (Melanoma)),Bliss excess [3],Bliss excess [4],Bliss excess [5],Bliss excess [6],Bliss excess [7],Bliss excess (NCI-H2452 (Mesothelioma)),Bliss excess (DK-MG (Glioblastoma)),Bliss excess [8],Bliss excess [9],Bliss excess [10],Bliss excess [11],Bliss excess [12],Bliss excess [13],Bliss excess [14],Bliss excess [15],Bliss excess [16],Bliss excess (SK-MEL-24 (Melanoma))
"COc1cccc(OCCCN)c1-c1cc(Nc2cnc(C#N)cn2)n[nH]1 [Prexasertib] + C[C@@H]1COCCN1C2=NC(=NC(=C2)C3(CC3)[S@](=N)(=O)C)C4=C5C=CNC5=NC=C4 [AZD6738] (first compound max 1 µM, 7x7, partner max 10 µM)",0.0846,-0.0712,-0.0217,-0.062,-0.0016,-0.0445,-0.0519,-0.0295,-0.0061,0.0073,-0.0201,0.05,-0.0461,-0.0809,-0.0582,0.001,-0.0378,0.0168,-0.0233,-0.0061
"CN(C)CCCOc1ccc(-c2ccc3ncc4c(c3c2)n(C2CCOCC2)c(=O)n4C)cn1 [AZD0156] + CCN(CCO)CCCOc1ccc2c(Nc3cc(CC(=O)Nc4cccc(F)c4)[nH]n3)ncnc2c1 [AZD2811] (first compound max 1 µM, 7x7, partner max 1 µM)",-0.0224,0.093,0.0066,0.0447,-0.018,-0.0327,0.09,0.107,-0.042,0.0081,-0.0422,-0.0409,-0.0136,0.0327,0.0147,-0.0022,-0.0648,-0.0077,-0.0423,-0.0401
"C[C@@H]1COCCN1c1cc(C2([S@](C)(=N)=O)CC2)nc(-c2ccnc3[nH]ccc23)n1 [AZD6738] + O=C(c1cc(Cc2n[nH]c(=O)c3ccccc23)ccc1F)N1CCN(C(=O)C2CC2)CC1 [Olaparib] (first compound max 10 µM, 7x7, partner max 10 µM)",0.0046,-0.0358,0.0461,-0.0308,0.0522,0.0086,-0.0548,-0.0239,-0.0415,0.0079,-0.0328,-0.0003,-0.0373,-0.054,0.0035,0.013,-0.0115,0.0194,-0.0135,-0.0105
"COc1cccc2c1C(=O)c1c(O)c3c(c(O)c1C2=O)C[C@@](O)(C(=O)CO)C[C@@H]3O[C@H]1C[C@H](N)[C@H](O)[C@H](C)O1 [Doxorubicin] + Cc1cc2ncnn2cc1Nc1ncc2c(n1)n(C1CCOCC1)c(=O)n2C [AZD7648] (first compound max 1 µM, 7x7, partner max 10 µM)",0.0653,0.0667,0.0302,0.102,-0.0228,0.0456,0.0238,0.0985,0.0928,0.0299,0.0553,0.0095,0.0706,0.0727,0.0091,0.0782,-0.0594,0.0739,-0.0356,0.0399
"CN(CCO)CC[C@H](CSc1ccccc1)Nc1ccc(S(=O)(=O)NC(=O)c2ccc(N3CCC([C@@H](O)c4ccccc4-c4ccc(Cl)cc4)CC3)cc2)cc1S(=O)(=O)C(F)(F)F [AZD4320] + C1CN(CCC1(C(=O)N[C@@H](CCO)C2=CC=C(C=C2)Cl)N)C3=NC=NC4=C3C=CN4 [Capivasertib] (first compound max 1 µM, 7x7, partner max 3 µM)",-0.0467,-0.0441,-0.0412,-0.0649,0.0425,-0.067,-0.0265,-0.0512,-0.0757,-0.0847,-0.0793,-0.0219,-0.023,-0.022,-0.0429,0.0394,-0.0775,-0.0508,-0.0487,-0.0428
"NC1(C(=O)N[C@@H](CCO)c2ccc(Cl)cc2)CCN(c2ncnc3[nH]ccc23)CC1 [Capivasertib] + CC(C)n1c(=O)n(C)c2cnc3cc(F)c(-c4ccc(OCCCN5CCCCC5)nc4)cc3c21 [AZD1390] (first compound max 10 µM, 7x7, partner max 0.3 µM)",-0.0648,-0.079,-0.0688,-0.0859,-0.0189,-0.0077,-0.0105,-0.0326,-0.0922,-0.0847,-0.0144,-0.0213,-0.0679,-0.136,-0.0076,-0.0456,-0.0549,-0.0893,-0.0406,-0.0251
"Cc1c2c(nn1C)CSCc1cc(n(C)n1)CSc1cc(c3ccccc3c1)OCCCc1c(C(=O)O)n(C)c3c-2c(Cl)ccc13 [AZD5991] + CN(C)CCCOc1ccc(-c2ccc3ncc4c(c3c2)n(C2CCOCC2)c(=O)n4C)cn1 [AZD0156] (first compound max 1 µM, 7x7, partner max 1 µM)",-0.0204,-0.0144,-0.0352,-0.0017,0.0076,-0.0433,-0.0028,0.0362,0.0366,-0.0518,-0.0128,-0.0542,-0.0237,-0.122,-0.0213,-0.0536,-0.0708,0.0049,0.0064,-0.0328
